From patent publication US20250346585A1 (Alexion Pharmaceuticals, Inc., priority 2022, published 2025)
Where two headings read alike, the source gives them in different places.

Target: Human complement C1s enzyme (Homo sapiens (Human), UniProt P09871)
Assay: Human C1s enzyme assay
Format: biochemical
Settings: read-out: IC50 (Stars)
Method in brief: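 IC50 derived by nonlinear regression of rate versus concentration, with rate taken from A405 kinetics (30 s intervals, 30 min) after adding 100 μM each Z-L-Lys-SBzl and DTNB. C1s from human serum, 1.16 nM, exposed to compound for 5 min at RT beforehand; buffer 50 mM Tris, 1 M NaCl, pH 7.5.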

[1] = Human C1s enzyme assay of Example 3
[2] = Human complement C1s enzyme 1.16 nM, substrate Z-L-Lys-SBzl 100 μM, assay of Example 3
[3] = Human complement C1s enzyme 1.16 nM, substrate Z-L-Lys-SBzl, assay of Example 3

Chain of Human complement C1s enzyme (P09871 438-688 limits assumed): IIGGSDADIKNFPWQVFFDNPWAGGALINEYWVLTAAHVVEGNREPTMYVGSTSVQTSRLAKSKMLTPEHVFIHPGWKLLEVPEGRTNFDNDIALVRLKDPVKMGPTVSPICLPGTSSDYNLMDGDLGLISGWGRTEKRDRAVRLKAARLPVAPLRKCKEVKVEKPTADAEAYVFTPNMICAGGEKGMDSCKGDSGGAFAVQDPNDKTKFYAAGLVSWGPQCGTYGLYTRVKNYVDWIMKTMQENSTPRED
Chain of Human complement C1s enzyme (P09871 16-437 partner limits assumed): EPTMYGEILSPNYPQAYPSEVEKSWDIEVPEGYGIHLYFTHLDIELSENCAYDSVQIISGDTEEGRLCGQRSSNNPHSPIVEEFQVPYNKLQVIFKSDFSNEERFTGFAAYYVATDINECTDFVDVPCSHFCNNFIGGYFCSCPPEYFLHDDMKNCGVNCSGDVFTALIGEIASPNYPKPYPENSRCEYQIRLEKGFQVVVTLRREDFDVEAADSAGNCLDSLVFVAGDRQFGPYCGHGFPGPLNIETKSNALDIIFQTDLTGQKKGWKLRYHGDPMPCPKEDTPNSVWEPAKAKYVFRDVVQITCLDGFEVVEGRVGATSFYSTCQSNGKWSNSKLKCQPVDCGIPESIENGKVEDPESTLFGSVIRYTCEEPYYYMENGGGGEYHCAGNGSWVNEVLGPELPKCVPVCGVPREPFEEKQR

SMILES	IC50 [1]	IC50 [2]	also measured
N=C(N)c1csc(CNC(=O)[C@@H]2CC3(CN2C(=O)CNC(=O)c2ccc(-c4ccccc4)cn2)OCCO3)c1 [Compound 48, (S)—N-((4-carbamimidoylthiophen-2-yl)methyl)-7-((5-phenylpicolinoyl)glycyl)-1,4-dioxa-7-azaspiro[4.4]nonane-8-carboxamide]	< 100 nM		
N=C(N)c1csc([C@H](NC(=O)[C@@H]2CC3(CN2C(=O)CNC(=O)c2ccc4c(c2)-c2ccccc2C4(F)F)OCCO3)C(F)(F)F)c1 (single isomer, unassigned) [Compound 246, (S)—N—((R*)-1-(4-carbamimidoylthiophen-2-yl)-2,2,2-trifluoroethyl)-7-((9,9-difluoro-9H-fluorene-3-carbonyl)glycyl)-1,4-dioxa-7-azaspiro[4.4]nonane-8-carboxamide]		< 100 nM	
COC[C@@]12C[C@@H]1N(C(=O)CNC(=O)c1ccc(Oc3ccc(F)cc3)cc1)[C@H](C(=O)N[C@H](C)c1ccc(C(=N)N)s1)C2 [Compound 38, (1S,3S,5R)—N—((R)-1-(5-carbamimidoylthiophen-2-yl)ethyl)-2-((4-(4-fluorophenoxy)benzoyl)glycyl)-5-(methoxymethyl)-2-azabicyclo[3.1.0]-hexane-3-carboxamide]	< 100 nM		
C[C@@H](NC(=O)[C@@H]1C[C@]2(Cc3ncno3)C[C@@H]2N1C(=O)CNC(=O)c1ccc2c(c1)-c1ccccc1C2(F)F)c1cc(C(=N)N)cs1 [Compound 420, (1S,3S,5S)-5-((1,2,4-oxadiazol-5-yl)methyl)-N—((R)-1-(4-carbamimidoylthiophen-2-yl)ethyl)-2-((9,9-difluoro-9H-fluorene-3-carbonyl)glycyl)-2-azabicyclo[3.1.0]hexane-3-carboxamide]			IC50 [3]: < 100 nM
C[C@@H](NC(=O)[C@@H]1CC2(CN1C(=O)CNC(=O)c1ccc3c(c1)-c1ccccc1C3F)OCCO2)c1cc(C(=N)N)cs1 (stereo partly drawn) [Compound 127, (8S)—N—((R)-1-(4-carbamimidoylthiophen-2-yl)ethyl)-7-((9-fluoro-9H-fluorene-3-carbonyl)glycyl)-1,4-dioxa-7-azaspiro[4.4]nonane-8-carboxamide]	< 100 nM		
C[C@@H](NC(=O)[C@@H]1CC2(CN1C(=O)CN1Cc3cc(-c4ccccc4)ccc3C1=O)OCCO2)c1cc(C(=N)N)cs1 [Compound 365, (S)—N—((R)-1-(4-carbamimidoylthiophen-2-yl)ethyl)-7-(2-(1-oxo-5-phenylisoindolin-2-yl)acetyl)-1,4-dioxa-7-azaspiro[4.4]nonane-8-carboxamide]		< 100 nM	
C[C@@H](NC(=O)[C@@H]1CC2(CN1C(=O)CNC(=O)c1ccc(O)cc1)OCCO2)c1cc(C(=N)N)cs1 [Compound 272, (S)—N—((R)-1-(4-carbamimidoylthiophen-2-yl)ethyl)-7-((4-hydroxybenzoyl)glycyl)-1,4-dioxa-7-azaspiro[4.4]nonane-8-carboxamide]		< 100 nM	
COC[C@@H]1C[C@@H](C(=O)N[C@H](C)c2cc(C(=N)N)cs2)N(C(=O)CNC(=O)c2ccc3oc4ccccc4c3c2)C1 (relative stereo) [Compound 295, (2S,4R*)—N—((R)-1-(4-carbamimidoylthiophen-2-yl)ethyl)-1-((dibenzo[b,d]furan-2-carbonyl)glycyl)-4-(methoxymethyl)pyrrolidine-2-carboxamide]		< 100 nM	
C[C@@H](NC(=O)[C@@H]1C[C@](F)(CF)CN1C(=O)CNC(=O)c1ccc2c(c1)C(C)(C)c1ccccc1-2)c1cc(C(=N)N)cs1 [Compound 368, (2S,4R)—N—((R)-1-(4-carbamimidoylthiophen-2-yl)ethyl)-1-((9,9-dimethyl-9H-fluorene-2-carbonyl)glycyl)-4-fluoro-4-(fluoromethyl)pyrrolidine-2-carboxamide]		< 100 nM	
C[C@@H](NC(=O)[C@@H]1CC2(CN1C(=O)CNC(=O)c1ccc(C(F)(F)c3ccccc3)cc1)OCCO2)c1cc(C(=N)N)cs1 [Compound 82, (S)—N—((R)-1-(4-carbamimidoylthiophen-2-yl)ethyl)-7-((4-(difluoro(phenyl)methyl)benzoyl)glycyl)-1,4-dioxa-7-azaspiro[4.4]nonane-8-carboxamide]	< 100 nM		
C[C@@H](NC(=O)[C@@H]1C[C@]2(CO)C[C@@H]2N1C(=O)CNC(=O)c1ccc(Oc2ccc(F)cc2)cc1)c1cc(C(=N)N)cs1 [Compound 42, (1S,3S,5R)—N—((R)-1-(4-carbamimidoylthiophen-2-yl)ethyl)-2-((4-(4-fluorophenoxy)benzoyl)glycyl)-5-(hydroxymethyl)-2-azabicyclo[3.1.0]hexane-3-carboxamide]	< 100 nM		
C[C@@H](NC(=O)[C@@H]1C[C@H](c2nccs2)CN1C(=O)CNC(=O)c1ccc(Oc2ccc(F)cc2)cc1)c1cc(C(=N)N)cs1 [Compound 171, (2S,4S)—N—((R)-1-(4-carbamimidoylthiophen-2-yl)ethyl)-1-((4-(4-fluorophenoxy)benzoyl)glycyl)-4-(thiazol-2-yl)pyrrolidine-2-carboxamide]	< 100 nM		
Cn1ccc2cc(-c3ccc(C(=O)NCC(=O)N4CC5(C[C@H]4C(=O)NCc4cc(C(=N)N)cs4)OCCO5)cc3)ccc21 [Compound 104, (S)—N-((4-carbamimidoylthiophen-2-yl)methyl)-7-((4-(1-methyl-1H-indol-5-yl)benzoyl)glycyl)-1,4-dioxa-7-azaspiro[4.4]nonane-8-carboxamide]	< 100 nM		
C[C@@H](NC(=O)[C@@H]1C[C@](F)(CF)CN1C(=O)CNC(=O)c1ccc2c(c1)-c1ccccc1S2(=O)=O)c1cc(C(=N)N)cs1 [Compound 336, (2S,4R)—N—((R)-1-(4-carbamimidoylthiophen-2-yl)ethyl)-1-((5,5-dioxidodibenzo[b,d]thiophene-2-carbonyl)glycyl)-4-fluoro-4-(fluoromethyl) pyrrolidine-2-carboxamide]		< 100 nM	
CC1c2ccccc2-c2cc(C(=O)NCC(=O)N3C[C@H](OC(F)F)C[C@H]3C(=O)N[C@H](C)c3cc(C(=N)N)cs3)ccc21 (stereo partly drawn) [Compound 421, (2S,4R)-N-((R)-1-(4-carbamimidoylthiophen-2-yl)ethyl)-4-(difluoromethoxy)-1-((9-methyl-9H-fluorene-3-carbonyl)glycyl) pyrrolidine-2-carboxamide]			IC50 [3]: < 100 nM
C[C@@H](NC(=O)[C@@H]1C[C@](F)(CF)CN1C(=O)CNC(=O)c1ccc(Oc2ccc(F)cc2)cc1)c1ccc(C(=N)N)s1 [Compound 40, (2S,4R)—N—((R)-1-(5-carbamimidoylthiophen-2-yl)ethyl)-4-fluoro-4-(fluoromethyl)-1-((4-(4-fluorophenoxy)benzoyl)glycyl)pyrrolidine-2-carboxamide]	< 100 nM		
N=C(N)c1csc(CNC(=O)[C@@H]2C[C@@H](OC(F)F)CN2C(=O)CNC(=O)c2ccc3c(c2)-c2ccccc2C3(F)F)c1 [Compound 50, (2S,4R)—N-((4-carbamimidoylthiophen-2-yl)methyl)-1-((9,9-difluoro-9H-fluorene-3-carbonyl)glycyl)-4-(difluoromethoxy)pyrrolidine-2-carboxamide]	< 100 nM		
C[C@@H](NC(=O)[C@@H]1C[C@]2(C)C[C@@H]2N1C(=O)CNC(=O)c1ccc2c(c1)-c1ccccc1C2(F)F)c1cc(C(=N)N)cs1 [Compound 4, (1S,3S,5S)—N—((R)-1-(4-carbamimidoylthiophen-2-yl)ethyl)-2-((9,9-difluoro-9H-fluorene-3-carbonyl)glycyl)-5-methyl-2-azabicyclo[3.1.0]hexane-3-carboxamide]	< 100 nM		
C[C@@H](NC(=O)[C@@H]1CC2(CN1C(=O)CNC(=O)c1ccc3c(c1)-c1ccc(F)cc1C3(F)F)OCCO2)c1cc(C(=N)N)cs1 [Compound 193, (8S)—N-[(1R)-1-(4-carbamimidoylthiophen-2-yl)ethyl]-7-{2-[(7,9,9-trifluorofluoren-3-yl)formamido]acetyl}-1,4-dioxa-7-azaspiro[4.4]nonane-8-carboxamide]	< 100 nM		
C[C@H](O)[C@H](O)[C@@H](O)[C@@H](O)CNCC(=O)NCCOC[C@@]12C[C@@H]1N(C(=O)CNC(=O)c1ccc3c(c1)-c1ccccc1C3(F)F)[C@H](C(=O)N[C@H](C)c1cc(C(=N)N)cs1)C2 [Compound 89, (1S,3S,5R)—N—((R)-1-(4-carbamimidoylthiophen-2-yl)ethyl)-2-((9,9-difluoro-9H-fluorene-3-carbonyl)glycyl)-5-((2-(2-(((2S,3S,4S,5S)-2,3,4,5-tetrahydroxyhexyl)amino)acetamido)ethoxy)methyl)-2-azabicyclo[3.1.0]hexane-3-carboxamide]	< 100 nM		
C[C@@H](NC(=O)[C@@H]1C[C@](F)(CF)CN1C(=O)CNC(=O)c1ccc2c(c1)-c1ccccc1C2)c1cc(C(=N)N)cs1 [Compound 12, (2S,4R)—N-[(1R)-1-(4-carbamimidoylthiophen-2-yl)ethyl]-1-[2-(9H-fluoren-3-ylformamido)acetyl]-4-fluoro-4-(fluoromethyl)pyrrolidine-2-carboxamide]	< 100 nM		
C[C@@H](NC(=O)[C@@H]1C[C@H](c2ccccn2)CN1C(=O)CNC(=O)c1ccc2c(c1)-c1ccccc1C2(F)F)c1cc(C(=N)N)cs1 [Compound 358, (2S,4S)—N—((R)-1-(4-carbamimidoylthiophen-2-yl)ethyl)-1-((9,9-difluoro-9H-fluorene-3-carbonyl)glycyl)-4-(pyridin-2-yl)pyrrolidine-2-carboxamide]		< 100 nM	
COC[C@@]1(F)C[C@@H](C(=O)N[C@H](C)c2cc(C(=N)N)cs2)N(C(=O)CNC(=O)c2ccc3oc4ccccc4c3c2)C1 [Compound 222, (2S,4R)—N—((R)-1-(4-carbamimidoylthiophen-2-yl)ethyl)-1-((dibenzo[b,d]furan-2-carbonyl)glycyl)-4-fluoro-4-(methoxymethyl)pyrrolidine-2-carboxamide]		< 100 nM	
N=C(N)c1csc(CNC(=O)[C@@H]2CC3(CN2C(=O)CNC(=O)c2ccc(Oc4ccccc4)cc2F)OCCO3)c1 [Compound 74, (S)—N-((4-carbamimidoylthiophen-2-yl)methyl)-7-((2-fluoro-4-phenoxybenzoyl)glycyl)-1,4-dioxa-7-azaspiro[4.4]nonane-8-carboxamide]	< 100 nM		
